# Reference: US20230123334A1, “AMINO LIPID COMPOUND, PREPARATION METHOD THEREFOR, AND APPLICATION THEREOF” (SHENZHEN SHENXIN BIOTECHNOLOGY CO., LTD., priority 2020, published 2023)
# Tested on: HEK293 cells
# Assay: Preliminary screening as mRNA vectors, EGFP mRNA transfection of HEK293 cells
# Assay type: cell-based
# Conditions: EGFP mRNA 50 ng per well, 96-well plates; percentage of GFP fluorescent cells relative to total number of cells (Hoechst)
# Summary of the method: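 HEK293 cells in DMEM plus 10% FBS transfected in 96-well format with 50 ng EGFP mRNA per well; Lipofectamine2000 served as positive control. Read-out is the percentage of GFP-fluorescent cells among total cells, counted by Hoechst nuclear stain.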
row,SMILES,Absolute mRNA transfection efficiency in HEK293 cells
1,CCCCCCCCCCCCSc1nc(NCCCCCCC)nc(NCC2CCN(C)CC2)n1 [Compound D10S12N7],1.7%
2,CCCCCCCCCCCCSc1nc(NCCCCCCCC)nc(NCC2CCN(C)CC2)n1 [Compound D10S12N8],12.9%
3,CCCCCCCCCCCCSc1nc(NCCCCCCCCC)nc(NCC2CCN(C)CC2)n1 [Compound D10S12N9],17.5%
4,CCCCCCCCCCCCSc1nc(NCCCCCCCCCCC)nc(NCC2CCN(C)CC2)n1 [Compound D10S12N11],26.6%
5,CCCCCCCCCCCCNc1nc(NCC2CCN(C)CC2)nc(SCCCCCCCCCCCC)n1 [Compound D10S12N12],31.5%
6,CCCCCCCCCCCCCNc1nc(NCC2CCN(C)CC2)nc(SCCCCCCCCCCCC)n1 [Compound D10S12N13],1.8%
7,CCCCCCCCCCCCCCCNc1nc(NCC2CCN(C)CC2)nc(SCCCCCCCCCCCC)n1 [Compound D10S12N15],4.1%
8,CCCCCCCCCCCCCCCCNc1nc(NCC2CCN(C)CC2)nc(SCCCCCCCCCCCC)n1 [Compound D10S12N16],3.4%
9,CCCCCCCCCCCCCCCCCCNc1nc(NCC2CCN(C)CC2)nc(SCCCCCCCCCCCC)n1 [Compound D10S12N18],4.1%
10,CCCCCCCCCCCCCCSc1nc(NCCCCCC)nc(NCC2CCN(C)CC2)n1 [Compound D10S14N6],41.9%
11,CCCCCCCCCCCCCCSc1nc(NCCCCCCC)nc(NCC2CCN(C)CC2)n1 [Compound D10S14N7],55.0%
12,CCCCCCCCCCCCCCSc1nc(NCCCCCCCC)nc(NCC2CCN(C)CC2)n1 [Compound D10S14N8],43.8%
13,CCCCCCCCCCCCCCSc1nc(NCCCCCCCCC)nc(NCC2CCN(C)CC2)n1 [Compound D10S14N9],54.2%
14,CCCCCCCCCCCCCCSc1nc(NCCCCCCCCCCC)nc(NCC2CCN(C)CC2)n1 [Compound D10S14N11],21.4%
15,CCCCCCCCCCCCCCSc1nc(NCCCCCCCCCCCC)nc(NCC2CCN(C)CC2)n1 [Compound D10S14N12],6.9%
16,CCCCCCCCCCCCCCSc1nc(NCCCCCCCCCCCCC)nc(NCC2CCN(C)CC2)n1 [Compound D10S14N13],11.7%
17,CCCCCCCCCCCCCCCNc1nc(NCC2CCN(C)CC2)nc(SCCCCCCCCCCCCCC)n1 [Compound D10S14N15],3.3%
18,CCCCCCCCCCCCCCCCNc1nc(NCC2CCN(C)CC2)nc(SCCCCCCCCCCCCCC)n1 [Compound D10S14N16],3.0%
19,CCCCCCCCCCCCCCCCCCNc1nc(NCC2CCN(C)CC2)nc(SCCCCCCCCCCCCCC)n1 [Compound D10S14N18],2.6%
20,CCCCCCCCCCCCCCCSc1nc(NCCCCCC)nc(NCC2CCN(C)CC2)n1 [Compound D10S15N6],18.4%
21,CCCCCCCCCCCCCCCSc1nc(NCCCCCCC)nc(NCC2CCN(C)CC2)n1 [Compound D10S15N7],22.1%

row,SMILES,Absolute mRNA transfection efficiency in HEK293 cells
1,CCCCCCCCCCCCCCCSc1nc(NCCCCCCCC)nc(NCC2CCN(C)CC2)n1 [Compound D10S15N8],12.9%
2,CCCCCCCCCCCCCCCSc1nc(NCCCCCCCCC)nc(NCC2CCN(C)CC2)n1 [Compound D10S15N9],12.8%
3,CCCCCCCCCCCCCCCSc1nc(NCCCCCCCCCCC)nc(NCC2CCN(C)CC2)n1 [Compound D10S15N11],2.7%
4,CCCCCCCCCCCCCCCSc1nc(NCCCCCCCCCCCC)nc(NCC2CCN(C)CC2)n1 [Compound D10S15N12],5.1%
5,CCCCCCCCCCCCCCCSc1nc(NCCCCCCCCCCCCC)nc(NCC2CCN(C)CC2)n1 [Compound D10S15N13],5.4%
6,CCCCCCCCCCCCCCCNc1nc(NCC2CCN(C)CC2)nc(SCCCCCCCCCCCCCCC)n1 [Compound D10S15N15],2.4%
7,CCCCCCCCCCCCCCCCNc1nc(NCC2CCN(C)CC2)nc(SCCCCCCCCCCCCCCC)n1 [Compound D10S15N16],6.1%
8,CCCCCCCCCCCCCCCCCCNc1nc(NCC2CCN(C)CC2)nc(SCCCCCCCCCCCCCCC)n1 [Compound D10S15N18],4.2%
9,CCCCCCCCCCCCCCCCSc1nc(NCCCCCC)nc(NCC2CCN(C)CC2)n1 [Compound D10S16N6],86.9%
10,CCCCCCCCCCCCCCCCSc1nc(NCCCCCCC)nc(NCC2CCN(C)CC2)n1 [Compound D10S16N7],29.6%
11,CCCCCCCCCCCCCCCCSc1nc(NCCCCCCCC)nc(NCC2CCN(C)CC2)n1 [Compound D10S16N8],70.4%
12,CCCCCCCCCCCCCCCCSc1nc(NCCCCCCCCC)nc(NCC2CCN(C)CC2)n1 [Compound D10S16N9],49.2%
13,CCCCCCCCCCCCCCCCSc1nc(NCCCCCCCCCCC)nc(NCC2CCN(C)CC2)n1 [Compound D10S16N11],37.8%
14,CCCCCCCCCCCCCCCCSc1nc(NCCCCCCCCCCCC)nc(NCC2CCN(C)CC2)n1 [Compound D10S16N12],9.2%
15,CCCCCCCCCCCCCCCCSc1nc(NCCCCCCCCCCCCC)nc(NCC2CCN(C)CC2)n1 [Compound D10S16N13],7.1%
16,CCCCCCCCCCCCCCCCSc1nc(NCCCCCCCCCCCCCCC)nc(NCC2CCN(C)CC2)n1 [Compound D10S16N15],2.6%
17,CCCCCCCCCCCCCCCCNc1nc(NCC2CCN(C)CC2)nc(SCCCCCCCCCCCCCCCC)n1 [Compound D10S16N16],2.8%
18,CCCCCCCCCCCCCCCCCCNc1nc(NCC2CCN(C)CC2)nc(SCCCCCCCCCCCCCCCC)n1 [Compound D10S16N18],3.0%
19,CCCCCCCCCCCCCCCCCCSc1nc(NCCCCCC)nc(NCC2CCN(C)CC2)n1 [Compound D10S18N6],58.8%
20,CCCCCCCCCCCCCCCCCCSc1nc(NCCCCCCC)nc(NCC2CCN(C)CC2)n1 [Compound D10S18N7],45.8%
21,CCCCCCCCCCCCCCCCCCSc1nc(NCCCCCCCC)nc(NCC2CCN(C)CC2)n1 [Compound D10S18N8],16.8%

row,SMILES,Absolute mRNA transfection efficiency in HEK293 cells
1,CCCCCCCCCCCCCCCCCCSc1nc(NCCCCCCCCC)nc(NCC2CCN(C)CC2)n1 [Compound D10S18N9],8.9%
2,CCCCCCCCCCCCCCCCCCSc1nc(NCCCCCCCCCCC)nc(NCC2CCN(C)CC2)n1 [Compound D10S18N11],4.5%
3,CCCCCCCCCCCCCCCCCCSc1nc(NCCCCCCCCCCCC)nc(NCC2CCN(C)CC2)n1 [Compound D10S18N12],2.0%
4,CCCCCCCCCCCCCCCCCCSc1nc(NCCCCCCCCCCCCC)nc(NCC2CCN(C)CC2)n1 [Compound D10S18N13],2.9%
5,CCCCCCCCCCCCCCCCCCSc1nc(NCCCCCCCCCCCCCCC)nc(NCC2CCN(C)CC2)n1 [Compound D10S18N15],0.2%
6,CCCCCCCCCCCCCCCCCCSc1nc(NCCCCCCCCCCCCCCCC)nc(NCC2CCN(C)CC2)n1 [Compound D10S18N16],0.4%
7,CCCCCCCCCCCCCCCCCCNc1nc(NCC2CCN(C)CC2)nc(SCCCCCCCCCCCCCCCCCC)n1 [Compound D10S18N18],0.1%
8,CCCCCCCCCCCCN(CCCCCCCCCCCC)c1nc(NCCN(C)C)nc(SCCCCCC)n1 [D1S6^2N12],0.7%
9,CCCCCCCCCCCCN(CCCCCCCCCCCC)c1nc(NCCN(C)C)nc(SCCCCCCC)n1 [D1S7^2N12],0.7%
10,CCCCCCCCCCCCN(CCCCCCCCCCCC)c1nc(NCCN(C)C)nc(SCCCCCCCC)n1 [D1S8^2N12],0.4%
11,CCCCCCCCCCCCN(CCCCCCCCCCCC)c1nc(NCCN(C)C)nc(SCCCCCCCCC)n1 [D1S9^2N12],1.0%
12,CCCCCCCCCCCCN(CCCCCCCCCCCC)c1nc(NCCN(C)C)nc(SCCCCCCCCCC)n1 [D1S10^2N12],0.4%
13,CCCCCCCCCCCCN(CCCCCCCCCCCC)c1nc(NCCN(C)C)nc(SCCCCCCCCCCC)n1 [D1S11^2N12],0.0%
14,CCCCCCCCCCCCSc1nc(NCCN(C)C)nc(N(CCCCCCCCCCCC)CCCCCCCCCCCC)n1 [D1S12^2N12],2.6%
15,CCCCCCCCCCCCCCSc1nc(NCCN(C)C)nc(N(CCCCCCCCCCCC)CCCCCCCCCCCC)n1 [D1S14^2N12],0.1%
16,CCCCCCCCCCCCCCCSc1nc(NCCN(C)C)nc(N(CCCCCCCCCCCC)CCCCCCCCCCCC)n1 [D1S15^2N12],0.3%
17,CCCCCCCCCCCCCCCCSc1nc(NCCN(C)C)nc(N(CCCCCCCCCCCC)CCCCCCCCCCCC)n1 [D1S16^2N12],0.0%
18,CCCCCCCCCCCCCCCCCCSc1nc(NCCN(C)C)nc(N(CCCCCCCCCCCC)CCCCCCCCCCCC)n1 [D1S18^2N12],0.0%
19,CCCCCCCCCCCCN(CCCCCCCCCCCC)c1nc(NCCN2CCOCC2)nc(SCCCCCC)n1 [D2S6^2N12],0.0%
20,CCCCCCCCCCCCN(CCCCCCCCCCCC)c1nc(NCCN2CCOCC2)nc(SCCCCCCC)n1 [D2S7^2N12],0.4%
21,CCCCCCCCCCCCN(CCCCCCCCCCCC)c1nc(NCCN2CCOCC2)nc(SCCCCCCCC)n1 [D2S8^2N12],0.1%
